Read-outs that look alike come from different tables or passages of the source.
Key:
DENV-3 = assay: Viral yield assay against DENV-3 in Vero cells; format: cell-based; conditions: Dengue virus
Procedure: (§1) Compounds that were active in the primary screen were tested for activity in viral yield assays. […] Vero cells in 12-well plates were infected with dengue-2 virus at a multiplicity of infection (MOI) of 0.1, treated with compound (or DMSO as a control), incubated at 37° C., harvested 48 hours post infection and titered on Vero cells as described above. The EC50 was calculated through ExcelFit. Activities against other serotypes of dengue virus were determined in a similar way.

DENV-1 = assay: Viral yield assay against DENV-1 in Vero cells; format: cell-based; conditions: Dengue virus
Procedure: as §1

[1] = test system: Dengue-2 (Strain New Guinea C); assay: Viral yield assay against Dengue-2 in Vero cells; format: cell-based, Dengue virus; conditions: Dengue virus, read-out: Activity (EC50 in μM) DENV-2
Procedure, shortened: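 Vero cells were infected with dengue-2 at MOI 0.1, treated with compound (DMSO control), and kept at 37° C. They were harvested 48 hours post infection and yield was titered on Vero cells. EC50 came from the yield curve, and the other serotypes were run in a similar way.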

DENV-4 = assay: Viral yield assay against DENV-4 in Vero cells; format: cell-based; conditions: Dengue virus
Procedure: as §1

[2] = DENV2, viral yield assay, Vero cells, MOI 0.1, 48 hours post infection

Row | SMILES | EC50 (DENV-3; DENV3, viral yield assay) | EC50 (DENV-1; DENV1, viral yield assay) | EC50 [1, 2] | EC50 (DENV-4; DENV4, viral yield assay) | EC50 ([1]; DENV2, Vero, 48 h) | EC50 (DENV-3; DENV3) | EC50 (DENV-1; DENV1) | EC50 ([1]; DENV2, Vero cells) | EC50 (DENV-4; DENV4)
1 | Cc1ccc(NC(=O)c2sc3nc(-c4ccc(F)cc4)ccc3c2N)cc1F [Compound 612, 3-amino-N-(3-fluoro-4-methyl-phenyl)-6-(4-fluorophenyl)thieno[2,3-b]pyridine-2-carboxamide] | < 5 µM | < 5 µM | < 5 µM | < 5 µM |  |  |  |  | 
2 | Nc1c(C(=O)Nc2cccc(F)c2)sc2nc(-c3ccc4c(c3)OCO4)ccc12 [Compound 602, 3-amino-6-(1,3-benzodioxol-5-yl)-N-(3-fluorophenyl)thieno[2,3-b]pyridine-2-carboxamide] | < 5 µM | < 5 µM |  | 5 to 25 µM | < 5 µM |  |  |  | 
3 | Nc1c(C(=O)Nc2ccc(C(F)(F)F)cc2)sc2nc(-c3ccc4c(c3)OCO4)ccc12 [Compound 452, 3-amino-6-(1,3-benzodioxol-5-yl)-N-[4-(trifluoromethyl)phenyl]thieno[2,3-b] pyridine-2-carboxamide] | < 5 µM | < 5 µM | < 5 µM | < 5 µM |  |  |  |  | 
4 | COc1ccc(-c2ccc3c(N)c(C(=O)Nc4ccc(C)c(C)c4)sc3n2)cc1OC [Compound 577, 3-amino-6-(3,4-dimethoxyphenyl)-N-(3,4-dimethylphenyl)thieno[2,3-b] pyridine-2-carboxamide] | < 5 µM | < 5 µM | < 5 µM | < 5 µM |  |  |  |  | 
5 | Nc1c(C(=O)Nc2ccc(C(F)F)cc2)sc2nc(-c3ccc(Cl)cc3)ccc12 [Compound 337, 3-amino-6-(4-chlorophenyl)-N-[4-(difluoromethyl)phenyl]thieno[2,3-b]pyridine-2-carboxamide] | < 5 µM | < 5 µM | < 5 µM | < 5 µM |  |  |  |  | 
6 | COc1ccc(-c2ccc3c(N)c(C(=O)Nc4ccc(C(F)(F)F)cc4)sc3n2)cc1OC [Compound 475, 3-amino-6-(3,4-dimethoxyphenyl)-N-[4-(trifluoromethyl)phenyl]thieno[2,3-b] pyridine-2-carboxamide] | < 5 µM | < 5 µM | < 5 µM | < 5 µM |  |  |  |  | 
7 | Nc1c(C(=O)Nc2nnc(-c3ccccc3)s2)sc2nc3c(cc12)C(=O)CCCC3 [Compound 328] | 5 to 25 µM | < 5 µM | < 5 µM | < 5 µM |  |  |  |  | 
8 | Nc1c(C(=O)Nc2ccc(C(F)(F)F)cc2)sc2nc(-c3cccs3)ccc12 [Compound 459, 3-amino-6-(2-thienyl)-N-[4-(trifluoromethyl)phenyl]thieno[2,3-b] pyridine-2-carboxamide] | < 5 µM | < 5 µM | < 5 µM | < 5 µM |  |  |  |  | 
9 | O=C1CCC(=O)N(c2cccc(C(F)(F)F)c2)C(=O)c2sc3nc(-c4cccs4)ccc3c2N1 [Compound 306, 2-(thiophen-2-yl)-10-(3-(trifluoromethyl)phenyl)-7,8-dihydro-5H-pyrido[3′,2′:4,5]thieno[3,2-b][1,5]diazonine-6,9,11(10H)-trione] | < 5 µM | < 5 µM | < 5 µM | < 5 µM |  |  |  |  | 
10 | COc1cccc(-c2ccc3c(N)c(C(=O)Nc4ccc(Cl)c(C(F)(F)F)c4)sc3n2)c1 [Compound 498, 3-amino-N-[4-chloro-3-(trifluoromethyl)phenyl]-6-(3-methoxyphenyl)thieno [2,3-b]pyridine-2-carboxamide] | < 5 µM | < 5 µM | < 5 µM | < 5 µM |  |  |  |  | 
11 | CCOc1ccc(NC(=O)c2sc3nc(-c4ccc(OC)c(OC)c4)ccc3c2N)cc1 [Compound 635, 3-amino-6-(3,4-dimethoxyphenyl)-N-(4-ethoxyphenyl)thieno[2,3-b]pyridine-2-carboxamide] | > 25 µM | < 5 µM | < 5 µM | < 5 µM |  |  |  |  | 
12 | COc1ccc(-c2ccc3c(N)c(C(=O)Nc4ccc(C(F)(F)F)cc4)sc3n2)cc1 [Compound 492, 3-amino-6-(4-methoxyphenyl)-N-[4-(trifluoromethyl)phenyl]thieno[2,3-b] pyridine-2-carboxamide] | < 5 µM | < 5 µM | < 5 µM | < 5 µM |  |  |  |  | 
13 | CN1CCc2nc3sc(C(=O)Nc4ccc(OC(F)(F)F)cc4)c(NCC(=O)O)c3cc2C1 [Compound 303, 2-[[6-methyl-2-[[4-(trifluoromethoxy)phenyl]carbamoyl]-7,8-dihydro-5H-thieno[2,3-b][1,6]naphthyridin-3-yl]amino]acetic acid] |  |  |  |  |  | 5 to 25 µM | 5 to 25 µM | < 5 µM | < 5 µM
14 | Cc1ccc(NC(=O)c2sc3nc(-c4cccs4)ccc3c2N)cc1C [Compound 414, 3-amino-N-(3,4-dimethylphenyl)-6-(2-thienyl)thieno[2,3-b]pyridine-2-carboxamide] | < 5 µM | < 5 µM | < 5 µM | < 5 µM |  |  |  |  | 
15 | COc1cccc(-c2ccc3c(N)c(C(=O)Nc4cccc(Br)c4)sc3n2)c1 [Compound 447, 3-amino-N-(3-bromophenyl)-6-(3-methoxyphenyl)thieno[2,3-b]pyridine-2-carboxamide] | < 5 µM | < 5 µM | < 5 µM | < 5 µM |  |  |  |  | 
16 | O=C(Nc1c(C(=O)Nc2nnc(-c3ccccc3)s2)sc2nc3c(cc12)CCCCC3)c1ccccc1 [Compound 285, 3-benzamido-N-(5-phenyl-1,3,4-thiadiazol-2-yl)-6,7,8,9-tetrahydro-5H-cyclohepta[b]thieno[3,2-e]pyridine-2-carboxamide] |  |  |  |  |  | < 5 µM | < 5 µM | < 5 µM | < 5 µM
17 | CNc1c(C(=O)Nc2nnc(-c3ccccc3)s2)sc2nc3c(cc12)CCCCC3 [Compound 359, 3-(methylamino)-N-(5-phenyl-1,3,4-thiadiazol-2-yl)-6,7,8,9-tetrahydro-5H-cyclohepta[b]thieno[3,2-e]pyridine-2-carboxamide] |  |  |  |  |  | > 25 µM | < 5 µM | < 5 µM | 5 to 25 µM
18 | CCc1cccc(NC(=O)c2sc3nc(-c4ccc(F)cc4)ccc3c2N)c1 [Compound 609, 3-amino-N-(3-ethylphenyl)-6-(4-fluorophenyl)thieno[2,3-b]pyridine-2-carboxamide] | 5 to 25 µM | < 5 µM | < 5 µM | 5 to 25 µM |  |  |  |  | 
19 | O=C(O)CN(CC(=O)O)c1c(C(=O)Nc2cccc(C(F)(F)F)c2)sc2nc(-c3cccs3)ccc12 [Compound 363, 2-[carboxymethyl-[6-(2-thienyl)-2-[[3-(trifluoromethyl)phenyl]carbamoyl]thieno[2,3-b]pyridin-3-yl]amino]acetic acid] |  |  |  |  |  | > 25 µM | 5 to 25 µM | < 5 µM | > 25 µM
20 | CCOC(=O)c1ccc(NC(=O)c2sc3nc(-c4ccc(C)cc4)ccc3c2N)cc1 [Compound 638, ethyl 4-[[3-amino-6-(p-tolyl)thieno [2,3-b]pyridine-2-carbonyl]amino] benzoate] | < 5 µM | < 5 µM | < 5 µM | < 5 µM |  |  |  |  | 
21 | Nc1c(C(=O)Nc2ccccc2Br)sc2nc(-c3cccs3)ccc12 [Compound 462, 3-amino-N-(2-bromophenyl)-6-(2-thienyl)thieno[2,3-b]pyridine-2-carboxamide] | < 5 µM | < 5 µM | < 5 µM | < 5 µM |  |  |  |  | 
22 | COc1cccc(-c2ccc3c(N)c(C(=O)Nc4cccc(C)c4)sc3n2)c1 [Compound 547, 3-amino-6-(3-mehtoxyphenyl)-N-(m-tolyl)thieno[2,3-b]pyridine-2-carboxamide] | < 5 µM | < 5 µM | < 5 µM | < 5 µM |  |  |  |  | 
23 | Cc1ccc(-c2ccc3c(N)c(C(=O)Nc4ccccc4Cl)sc3n2)cc1 [Compound 650, 3-amino-N-(2-chlorophenyl)-6-(p-tolyl) thieno[2,3-b]pyridine-2-carboxamide] | < 5 µM | < 5 µM | < 5 µM | < 5 µM |  |  |  |  | 
24 | NCC(=O)Nc1c(C(=O)Nc2nnc(-c3ccccc3)s2)sc2nc3c(cc12)CCCCC3 [Compound 296, 3-(2-aminoacetamido)-N-(5-phenyl-1,3,4-thiadiazol-2-yl)-6,7,8,9-tetrahydro-5H-cyclohepta[b]thieno[3,2-e]pyridine-2-carboxamide] |  |  |  |  |  | < 5 µM | < 5 µM | < 5 µM | < 5 µM
25 | O=C(Nc1c(C(=O)Nc2nnc(-c3ccccc3)s2)sc2nc3c(cc12)CCCCC3)c1ccncc1 [Compound 298, 3-(isonicotinamido)-N-(5-phenyl-1,3,4-thiadiazol-2-yl)-6,7,8,9-tetrahydro-5H-cyclohepta[b]thieno[3,2-e]pyridine-2-carboxamide] |  |  |  |  |  | < 5 µM | < 5 µM | < 5 µM | < 5 µM
26 | C=CCSc1nc2ccc(NC(=O)c3sc4nc(-c5cccc(OC)c5)ccc4c3N)cc2s1 [Compound 569, N-(2-allylsulfanyl-1,3-benzothiazol-6-yl)-3-amino-6-(3-methoxyphenyl)thieno [2,3-b]pyridine-2-carboxamide] | 5 to 25 µM | < 5 µM | < 5 µM | < 5 µM |  |  |  |  | 
27 | Nc1c(C(=O)Nc2ccc(Br)cc2)sc2nc(-c3ccc(Cl)cc3)ccc12 [Compound 425] | < 5 µM | < 5 µM | < 5 µM | < 5 µM |  |  |  |  | 
